Reference: patent US8067337B2, “Agricultural chemical composition” (priority 2004, dated 2011)

Experiments:
Assay type in all cases: in vivo
Rice (Kinmaze) [1] = experiment: Rice seedlings at second leaf stage grown in liquid culture medium with various herbicidal compounds and p-(t-butyl)benzoic acid; details: herbicidal compound at ppm of Table 3, with or without p-(t-butyl)benzoic acid 3 ppm; after 14 days
Method: The test media were prepared by adding, in advance, to a 25% aqueous solution of salts for Murashige & Skoog culture medium (a product by Wako Pure Chemical Industries, Ltd.), various herbicidal compounds indicated in Table 3 and p-(t-butyl)benzoic acid to make up concentrations indicated in Table 3 and a concentration of 3 ppm, respectively. Fifty ml each of the resulting test culture media were dispensed into a 50 ml Erlenmeyer flask to prepare various liquid culture media. Similarly, a liquid culture medium with a herbicidal compound and a benzoic acid compound not added was prepared. Rice (Kinmaze) grown to the second leaf stage in culture soil for raising seedlings was soaked in these culture media, with the root cut off except for a 2 cm-long part thereof, and was grown in a growth chamber (manufactured by SANYO Electric Co., Ltd.) under the conditions of 25° C. with the lighting period of 16 hours, and the dark period of 8 hours to measure the plant length of rice, the length of the root, and the living masses of the above-ground part and the root after 14 days.
Rice was grown in the same manner as in each of Examples 21 to 25, except for not adding a benzoic acid compound to the culture medium. After 14 days, the plant length of rice, the length of the root, and the living masses of the above-ground part and the root were measured.

Rice (Kinmaze) [2] = experiment: Rice seedlings at second leaf stage grown in liquid culture medium with herbicidal compound A1 and benzoic acid compounds; details: herbicidal compound A1 0.1 ppm, benzoic acid compound 3 or 1 ppm (Table 2); after 14 days
Method: The test culture media were prepared by adding, in advance, to a 25% aqueous solution of salts for Murashige & Skoog culture medium (a product of Wako Pure Chemical Industries, Ltd.), the herbicidal compound A1 and various benzoic acid compounds indicated in Table 2 to make up a concentration of 0.1 ppm and the concentrations shown in Table 2, respectively. Fifty ml each of the resulting test culture media were dispensed into a 50 ml Erlenmeyer flask to prepare various liquid culture media. Similarly, the same amount of the 25% aqueous solution of salts for Murashige & Skoog culture medium was added to the above-mentioned flask to prepare a liquid culture medium (hereinafter referred to as the untreated culture medium). Rice (Kinmaze) grown to the second leaf stage in culture soil for raising seedlings was soaked in these culture media, with the root cut off except for a 2 cm-long part thereof, and was grown in a growth chamber under the conditions of 25° C. with the lighting period of 16 hours, and the dark period of 8 hours to measure the plant length of rice, the length of the root and the living masses of the above-ground part and the root after 14 days or, namely, after lapse of 14 cycles.
Rice was grown in the same manner as in Example 14, except for not adding a benzoic acid compound. After 14 days, the plant length of rice, the length of the root, and the living masses of the above-ground part and the root were measured.

[3] = system: rice seeds (variety of Kinmaze); experiment: Root length of germinated rice seeds grown on gelled culture medium containing herbicidal compound A1 and a benzoic acid compound; details: herbicidal compound A1 0.15 ppm, benzoic acid compound 2 ppm; after 7 days at 25° C.; percentage relative to untreated area
Method: Brine-sorted rice seeds (variety of Kinmaze) were soaked in a 0.5% aqueous solution of sodium hypochlorite for 10 minutes followed by washing in running water for 30 minutes and then kept at 30° C. for 36 hours to cause germination for obtaining germinated seeds. Separately, 0.3 part of gellan gum was dissolved in 100 parts of an aqueous solution of salts for Hoagland's No. 2 culture medium (a product by Sigma Co.). 13 Glass vials of 2 cm internal diameter and 5 cm height were each filled with 15 ml of the solution to which 2-[(4,6-dimethoxypyrimidin-2-yl)hydroxymethyl]-6-methoxymethyl-N-difluoromethane-sulfonylanilide (hereinafter referred to as the herbicidal compound A1) and a variety of the benzoic acid compounds indicated in Table 1 were added to make up concentrations of 0.15 ppm and 2 ppm, respectively, and kept standing to cause gelation of the solutions in the glass vial to prepare a culture medium containing the inventive composition (hereinafter referred to as the inventive culture medium). […]
Germinated seeds were grown in the same manner as in Example 1, except for not adding a benzoic acid compound to the inventive culture medium. After seven days, the lengths of the roots were measured.

CCCCOCN(C(=O)CCl)c1c(CC)cccc1CC [compound 5, Butachlor]
Living mass Above-ground part (Rice (Kinmaze) [1]): 0.14 g | Living mass Root (Rice (Kinmaze) [1]): 0.09 g

COCc1cccc(C(O)c2nc(OC)cc(OC)n2)c1NS(=O)(=O)C(F)F (stereo not shown) [Comparative Example 2, 2-[(4,6-dimethoxypyrimidin-2-yl)hydroxymethyl]-6-methoxymethyl-N-difluoromethane-sulfonylanilide]
Length of root (Rice (Kinmaze) [2]): 2.1 cm | Living mass Above-ground part (Rice (Kinmaze) [2]): 0.16 g | Living mass Root (Rice (Kinmaze) [2]): 0.07 g | Plant length (Rice (Kinmaze) [2]): 15.6 cm

CCN(CC)C(=O)SCc1ccc(Cl)cc1 [compound 6, Thiobencarb]
Living mass Above-ground part (Rice (Kinmaze) [1]): 0.23 g | Living mass Root (Rice (Kinmaze) [1]): 0.18 g

CCOC(=O)c1cnn(C)c1S(=O)(=O)NC(=O)Nc1nc(OC)cc(OC)n1 [compound 4, Pyrazosulfuron-ethyl]
Length of root (Rice (Kinmaze) [1]): 2.0 cm | Living mass Above-ground part (Rice (Kinmaze) [1]): 0.07 g | Living mass Root (Rice (Kinmaze) [1]): 0.04 g | Plant length (Rice (Kinmaze) [1]): 11.7 cm

COCc1cccc(C(O)c2nc(OC)cc(OC)n2)c1NS(=O)(=O)C(F)F (stereo not shown) [Comparative Example 1, 2-[(4,6-dimethoxypyrimidin-2-yl)hydroxymethyl]-6-methoxymethyl-N-difluoromethane-sulfonylanilide]
Length of root (%) [3]: 21%

COC(=O)c1ccccc1CS(=O)(=O)NC(=O)Nc1nc(OC)cc(OC)n1 [compound 3, Bensulfuron-methyl]
Living mass Above-ground part (Rice (Kinmaze) [1]): 0.11 g | Living mass Root (Rice (Kinmaze) [1]): 0.05 g

CCN(C(=O)n1nnn(-c2ccccc2Cl)c1=O)C1CCCCC1 [compound 7, Fentrazamide]
Length of root (Rice (Kinmaze) [1]): 2.2 cm | Living mass Above-ground part (Rice (Kinmaze) [1]): 0.08 g | Living mass Root (Rice (Kinmaze) [1]): 0.05 g | Plant length (Rice (Kinmaze) [1]): 11.6 cm
